In paper PMC5309247, “A Role of Corazonin Receptor in Larval-Pupal Transition and Pupariation in the Oriental Fruit Fly Bactrocera dorsalis (Hendel) (Diptera: Tephritidae)” (Frontiers in Physiology, 2017):
Where two headings read alike, the source gives them in different places.

Legend:
[1] = system: head-ligated B. dorsalis larvae; assay: Rescue of larval-pupal transition by peptide injection in head-ligated larvae; assay type: in vivo, Bactrocera dorsalis; details: 0.3 pmol in 300 nL, 24 h post-injection; for rescue of pupariation in head-ligated larvae: in words
Method: The peptides of Crz and ETH of B. dorsalis were synthesized by Genescript (Nanjing, China), and the adipokinetic hormone (AKH) peptide of Bombyx mori (BmAKH) was a gift from Dr. Naiming Zhou (Zhejing University, China; Yang et al., [2013]). The amino acid (aa) sequences for Crz, ETH and AKH were added in Table 1. Plasmids were prepared using the MIDIprep kit as purchased from Qiagen (Valencia, CA). The reagents for cell culture and GPCR assay were purchased from Gibco cell culture at Life Technologies (Grand Island, NY), including fetal bovine serum, DMEM/F12 medium, fungizone, penicillin/streptomycin, and coelenterazine. The transfection reagent (TransIt) was purchased from Mirus Bio (Madison, WI).
The experimental setup with head-ligated 2-day-old 3rd-instar larvae was based on a previous study (Kim et al., [2004]). […] Upon head-ligation, a series of larvae was injected with Crz (0.3 pmol in 300 nL) or ETH (0.3 pmol in 300 nL). Upon injection larvae were kept on an artificial diet as described above, and we scored pupal development at 24 h post-injection. Per treatment, we used 20 larvae and three biological replicates were conducted. Typical phenotype effects were captured with a Leica M205A stereomicroscope with a camera (Leica Microsystems, Wetzlar, Germany).

BdCrzR = assay: Ca2+ mobilization luminescence (aequorin) assay in BdCrzR-expressing CHO cells; assay type: cell-based, Bactrocera dorsalis; details: for Ca2+ response of BdCrzR-expressing CHO cells: CHO cells with aequorin and Gα16, 10-fold serial dilution of peptide
Method: The ORF for BdCrzR was inserted into the expression vector pcDNA3.1 (+). The correct clone of pcDNA3.1-BdCrzR was confirmed by sequencing (Invitrogen). Chinese Hamster Ovary (CHO) cells, supplemented with aequorin, and Gα16 subunit, were employed for the heterologous expression. The methods for the transfection and the Ca^2+ mobilization assay were performed as previously described (Jiang et al., [2014]). Briefly, cells were transfected with the pcDNA3.1(+)-BdCrzR using TransIT-LT1 transfection reagent (Mirus Bio). At 30 h after the transfection, the cells were collected and incubated with the coelenterazine (Invitrogen) for 2.5 h prior to the functional assay. The cells transfected with the empty pcDNA3.1 vector, were used as a negative control.
The luminescence assay was performed by measuring the intracellular Ca^2+ mobilization of the transfected CHO cells. A 10-fold serial dilution of the peptides (BdCrz and BmAKH) was applied to the cells. The luminescence caused by the intracellular calcium mobilization was measured within 20 s in every half-second intervals by a TriStar^2 LB 942 Multimode Reader (Berthold Technologies, Bad Wildbad, Germany; Jiang et al., [2013], [2014]). The lowest concentration of BdCrz ligand showing the maximum activation of the receptor, was selected for luminescence normalization. Based on that, a concentration-response curve was calculated for BdCrz by logistic fitting in Origin 8.6 (OriginLab Corporation, Northampton, MA). All experiments were conducted with three biological replicates.

MsCrzR = details: ref Kim et al., [2004], cited from earlier work
Excerpt: (§1) The CrzR is a member of the GPCR family having seven TM domains. Since the first CrzR was identified in Drosophila, homologous receptors have been predicted in several genome databases (Sha et al., [2012]).

Bombyx mori larvae = details: injection into larvae; ref Tanaka et al., [2002]; cited from earlier work
Excerpt: Crz is highly conserved with respect to spatial expression pattern, but no clear pattern of function has emerged.

Periplaneta americana = details: ref Veenstra, [1989]; cited from earlier work
Excerpt: (§2) Neuropeptides play a central role in regulating numerous vital physiological systems and behavioral events in diverse insects. The multiple functions of insect neuropeptides make them a prime practical potential target in the development of novel insect control agents (Boonen et al., [2009]).

Schistocerca americana = details: ref Veenstra, [1991]; cited from earlier work
Excerpt: as §2

DmCrzR = details: ref Cazzamali et al., [2002], Park et al., [2002b], cited from earlier work
Excerpt: as §1

In the case of “pAsn-Glu-Ser-Pro-Gly-Phe-Phe-Leu-Lys-Ile-Thr-Lys-Asn-Val-Pro-Arg-Leu-NH2 [BdETH, ecdysis-triggering hormone (ETH) of B. dorsalis, synthesized by Genescript, reference compound]”, the “rescue of pupariation in head-ligated larvae” value [1] is reported as “the same result was also observed”.
For “pGln-Thr-Phe-Gln-Tyr-Ser-His-Gly-Trp-Thr-Ser-NH2 [BdCrz, mature corazonin of Bactrocera dorsalis, …amide, synthesized by Genescript]”, the EC50 (BdCrzR; CHO cells with aequorin and Gα16, transiently expressing BdCrzR, Ca2+ luminescence within 20 s, logistic fit, three independent measurements, each three replicates) was 52.5 nM, the “Ca2+ response of BdCrzR-expressing CHO cells” value (shortened to “Ca2+ response”) (BdCrzR) was “concentration-dependent Ca^2+ responses” and the “head-ligated larvae that made the transition from the larval to the pupal stage” value ([1]; 20 larvae per treatment, three biological replicates) was 97%. For the same substance, the “rescue of pupariation in head-ligated larvae” value [1] was “could rescue the effects”, the EC50 (MsCrzR; CHO) was 0.2 nM and the EC50 (MsCrzR; Xenopus oocyte-expression system) was 0.075 nM. For the same substance, the pupal development (Bombyx mori larvae) was “prolonged pupal development”, the silk spinning rate (Bombyx mori larvae) was “reduced the silk spinning rate” and the cardioacceleratory activity (Periplaneta americana) was “cardioacceleratory peptide”.
For “pGln-Thr-Phe-Gln-Tyr-Ser-His-Gly-Trp-Thr-Asn-NH2 [[His^7]-Crz]”, the dark-inducing activity (Schistocerca americana) is given as “dark-inducing peptide”.
In the case of “DmCrz: Corazonin of Drosophila melanogaster (NP_524350.1) (QTFQYSRGWTN; Corazonin; UniProt Q26377 20-30, looked up)”, the EC50 (DmCrzR; DmCrzR-transfected CHO cells) is given as 18 nM and the EC50 (DmCrzR; Xenopus oocyte cells) is given as 1 nM.
With “pCys-Glu-Leu-Thr-Phe-Ser-Pro-Asp-Thr-NH2 [BmAKH, adipokinetic hormone (AKH) peptide of Bombyx mori, reference compound]” the “Ca2+ response” value (BdCrzR) was “no responses” and the “Ca2+ response” value (BdCrzR; listed as AKH) was “did not respond”.
